Measurements as given in US20180201592A1, “2-AMINO-1,3,4-THIADIAZINE AND 2-AMINO-1,3,4-OXADIAZINE BASED ANTIFUNGAL AGENTS” (F2G Limited, priority 2015, published 2018).

Key:
Conditions in all cases: banded MIC grade
Aspergillus niger = experiment: Minimum inhibitory concentration, YAG medium; type: cell-based
Method: (§1) The compound was dissolved in DMSO to give a solution containing 5 mg/mL. Tubes were stored at −20° C. until required. On the day of testing thawed solutions were vortex mixed to ensure homogeneity. 30 μL of solution was removed and added to 570 μL of sterile water in a separate sterile Eppendorf. The thoroughly mixed solution was used to prepare a series of doubling dilutions in water, in a deep well plate. Thirteen replicate plates were prepared using a Minitrak by aspirating 20 μL from each well into eleven clear polystyrene 96 well plates. Spores of Aspergillus spp. […] All plates were incubated for 24 hrs at 35° C. Growth was assessed by monitoring the optical density at 485 nm for each well. […] MICs are recorded as mg/L.

Aspergillus flavus = experiment: Minimum inhibitory concentration, YAG medium; type: cell-based
Method: as §1

Aspergillus terreus = experiment: Minimum inhibitory concentration, YAG medium; type: cell-based
Method: as §1

A. fumigatus 210 = experiment: Minimum inhibitory concentration, YAG medium; type: cell-based, Aspergillus fumigatus
Method: (§2) Between 1 and 5 mgs of compound were accurately weighed out into a sterile Eppendorf tube. The compound was dissolved in DMSO to give a solution containing 5 mg/mL. Tubes were stored at −20° C. until required.
(§3) On the day of testing thawed solutions were vortex mixed to ensure homogeneity. 30 μL of solution was removed and added to 570 μL of sterile water in a separate sterile Eppendorf. The thoroughly mixed solution was used to prepare a series of doubling dilutions in water, in a deep well plate. Thirteen replicate plates were prepared using a Minitrak by aspirating 20 μL from each well into eleven clear polystyrene 96 well plates.
(§4) Spores of Aspergillus spp. (Aspergillus fumigatus [two strains], Aspergillus terreus [two strains], Aspergillus niger and Aspergillus flavus) were harvested from cultures grown on Sabarauds agar for 5 days, and resuspended in PBS/Tween 80 to approx 1×10^7 cfu/mL. Each organism suspension was diluted in YAG medium (1% glucose, 1% ammonium chloride and 0.5% yeast extract) to 0.5-2×10^4cfu/mL. 80 μL of an organism suspension was added to each well of the plate containing drug dilutions.
(§5) This typically produced MIC plates with a drug range 50-0.05 mg/L and organism inocula of 1-2×10^4 cfu/mL for Aspergillus spp. All plates were incubated for 24 hrs at 35° C. Growth was assessed by monitoring the optical density at 485 nm for each well. The MIC of a compound is the lowest drug concentration that inhibits growth of an organism by >70% compared with a drug free control. MICs are recorded as mg/L. In cases where the MIC of an organism is […] the MIC is repeated using a concentration range of 0.5-0.0005 mg/L.

A. terreus 49 = experiment: Minimum inhibitory concentration, YAG medium; type: cell-based, Aspergillus terreus
Method: as §1

Aspergillus fumigatus = experiment: Minimum inhibitory concentration, YAG medium; type: cell-based
Method: as §2, §3, §4, §5

C. albicans = experiment: Minimum inhibitory concentration, RPMI medium; type: cell-based
Method: as §1, with “Assays were also performed in RPMI medium (Roswell Park Memorial Media 1640). To perform MIC tests in this medium, dilutions” for “Spores”, “compounds are prepared in microtitre plates as described above.” for “Aspergillus spp.”, “24-48” for “24”, “The following organisms were tested: […]” for “MICs are recorded as mg/L.”

C. tropicalis = experiment: Minimum inhibitory concentration, RPMI medium; type: cell-based
Method: as §1, with “Assays were also performed in RPMI medium (Roswell Park Memorial Media 1640). To perform MIC tests in this medium, dilutions” for “Spores”, “compounds are prepared in microtitre plates as described above.” for “Aspergillus spp.”, “24-48” for “24”, “The following organisms were tested: […]” for “MICs are recorded as mg/L.”

C. parapsilosis = experiment: Minimum inhibitory concentration, RPMI medium; type: cell-based
Method: as §1, with “Assays were also performed in RPMI medium (Roswell Park Memorial Media 1640). To perform MIC tests in this medium, dilutions” for “Spores”, “compounds are prepared in microtitre plates as described above.” for “Aspergillus spp.”, “24-48” for “24”, “The following organisms were tested: […]” for “MICs are recorded as mg/L.”

| SMILES | MIC grade, A. NIGER, YAG media (Aspergillus niger) | MIC grade, A. FLAVUS, YAG media (Aspergillus flavus) | MIC grade, A. TERREUS, YAG media (Aspergillus terreus) | MIC grade, A. FUMIGATUS 210, YAG media (A. fumigatus 210) | MIC grade, A. TERREUS 49, YAG media (A. terreus 49) | MIC grade, A. FUMIGATUS, YAG media (Aspergillus fumigatus) | MIC grade, C. ALBICANS, RPMI media (C. albicans) | MIC grade, C. TROPICALIS, RPMI media (C. tropicalis) | MIC grade, C. PARAPSILOSIS, RPMI media (C. parapsilosis) |
| --- | --- | --- | --- | --- | --- | --- | --- | --- | --- |
| N#Cc1ccc(COCCC2=NN=C(N)SC2)cc1 | 4 (4: <0.2 mg/L) | 3 (3: 0.2-1 mg/L) | 4 (4: <0.2 mg/L) | 4 (4: <0.2 mg/L) | 4 (4: <0.2 mg/L) | 4 (4: <0.2 mg/L) | 2 (2: 5-20 mg/L) | 1 (1: ≥20 mg/L) | 2 (2: 5-20 mg/L) |
| NC1=NNC(c2cccc3ccccc23)=CS1 | 1 (1: ≥5 mg/L) | 1 (1: ≥5 mg/L) | 1 (1: ≥5 mg/L) | 1 (1: ≥5 mg/L) | 1 (1: ≥5 mg/L) | 1 (1: ≥5 mg/L) | 1 (1: ≥20 mg/L) | 1 (1: ≥20 mg/L) | 2 (2: 5-20 mg/L) |
| CCCC(C)OCCC1=NN=C(N)SC1 (stereo not drawn) | 4 (4: <0.2 mg/L) | 2 (2: 1-5 mg/L) | 3 (3: 0.2-1 mg/L) | 3 (3: 0.2-1 mg/L) | 2 (2: 1-5 mg/L) | 2 (2: 1-5 mg/L) | 2 (2: 5-20 mg/L) | 1 (1: ≥20 mg/L) | 3 (3: 1-5 mg/L) |
| COCCOCCC1=NN=C(N)SC1 | 3 (3: 0.2-1 mg/L) | 2 (2: 1-5 mg/L) | 3 (3: 0.2-1 mg/L) | 2 (2: 1-5 mg/L) | 3 (3: 0.2-1 mg/L) | 2 (2: 1-5 mg/L) | 2 (2: 5-20 mg/L) | 1 (1: ≥20 mg/L) | 2 (2: 5-20 mg/L) |
| NC1=NN=C(CCOc2ccc(Br)cc2)CS1 | 4 (4: <0.2 mg/L) | 4 (4: <0.2 mg/L) | 3 (3: 0.2-1 mg/L) | 4 (4: <0.2 mg/L) | 1 (1: ≥5 mg/L) | 4 (4: <0.2 mg/L) | 1 (1: ≥20 mg/L) | 2 (2: 5-20 mg/L) | 3 (3: 1-5 mg/L) |
| CCCOc1ccc(CCC2=NN=C(N)SC2)cc1 | 4 (4: <0.2 mg/L) | 3 (3: 0.2-1 mg/L) | 4 (4: <0.2 mg/L) | 4 (4: <0.2 mg/L) | 4 (4: <0.2 mg/L) | 4 (4: <0.2 mg/L) | 4 (4: <1 mg/L) | 3 (3: 1-5 mg/L) | 4 (4: <1 mg/L) |
| COc1ccc(COCCC2=NN=C(N)SC2)cc1 | 3 (3: 0.2-1 mg/L) | 3 (3: 0.2-1 mg/L) | 3 (3: 0.2-1 mg/L) | 3 (3: 0.2-1 mg/L) | 3 (3: 0.2-1 mg/L) | 3 (3: 0.2-1 mg/L) | 2 (2: 5-20 mg/L) | 2 (2: 5-20 mg/L) | 3 (3: 1-5 mg/L) |
| NC1=NN=C(CCOCc2ccc(-c3ccccc3)cc2)CS1 | 3 (3: 0.2-1 mg/L) | 3 (3: 0.2-1 mg/L) | 3 (3: 0.2-1 mg/L) | 1 (1: ≥5 mg/L) | 3 (3: 0.2-1 mg/L) | 1 (1: ≥5 mg/L) | 1 (1: ≥20 mg/L) | 2 (2: 5-20 mg/L) | 2 (2: 5-20 mg/L) |
| Cc1ccc(COCCC2=NN=C(N)SC2)cc1 | 4 (4: <0.2 mg/L) | 3 (3: 0.2-1 mg/L) | 4 (4: <0.2 mg/L) | 4 (4: <0.2 mg/L) | 4 (4: <0.2 mg/L) | 4 (4: <0.2 mg/L) | 3 (3: 1-5 mg/L) | 2 (2: 5-20 mg/L) | 3 (3: 1-5 mg/L) |
| NC1=NN=C(CCCCC(=O)Nc2ccccc2)CS1 | 2 (2: 1-5 mg/L) | 3 (3: 0.2-1 mg/L) | 2 (2: 1-5 mg/L) | 3 (3: 0.2-1 mg/L) | 2 (2: 1-5 mg/L) | 3 (3: 0.2-1 mg/L) | 1 (1: ≥20 mg/L) | 1 (1: ≥20 mg/L) | 2 (2: 5-20 mg/L) |
| CCCCCCOCCC1=NN=C(N)SC1 | 4 (4: <0.2 mg/L) | 4 (4: <0.2 mg/L) | 4 (4: <0.2 mg/L) | 4 (4: <0.2 mg/L) | 4 (4: <0.2 mg/L) | 4 (4: <0.2 mg/L) | 4 (4: <1 mg/L) | 3 (3: 1-5 mg/L) | 4 (4: <1 mg/L) |
| NC1=NN=C(c2ccc3ccccc3c2)CS1 | 1 (1: ≥5 mg/L) | 1 (1: ≥5 mg/L) | 1 (1: ≥5 mg/L) | 1 (1: ≥5 mg/L) | 1 (1: ≥5 mg/L) | 2 (2: 1-5 mg/L) | 1 (1: ≥20 mg/L) | 1 (1: ≥20 mg/L) | 1 (1: ≥20 mg/L) |
| NC1=NN=C(CCOc2ccccc2)CS1 | 3 (3: 0.2-1 mg/L) | 3 (3: 0.2-1 mg/L) | 4 (4: <0.2 mg/L) | 4 (4: <0.2 mg/L) | 3 (3: 0.2-1 mg/L) | 4 (4: <0.2 mg/L) | 3 (3: 1-5 mg/L) | 2 (2: 5-20 mg/L) | 4 (4: <1 mg/L) |
| CCCCOc1cccc(C2=NN=C(N)SC2)c1 | 1 (1: ≥5 mg/L) | 1 (1: ≥5 mg/L) | 1 (1: ≥5 mg/L) | 1 (1: ≥5 mg/L) | 1 (1: ≥5 mg/L) | 1 (1: ≥5 mg/L) | 1 (1: ≥20 mg/L) | 1 (1: ≥20 mg/L) | 1 (1: ≥20 mg/L) |
| CCCCOc1ccc(C2=NN=C(N)SC2)cc1 | 3 (3: 0.2-1 mg/L) | 3 (3: 0.2-1 mg/L) | 3 (3: 0.2-1 mg/L) | 3 (3: 0.2-1 mg/L) | 1 (1: ≥5 mg/L) | 3 (3: 0.2-1 mg/L) | 1 (1: ≥20 mg/L) | 1 (1: ≥20 mg/L) | 1 (1: ≥20 mg/L) |
